Measured values from article PMC10707737, “Indole Diterpene Derivatives from the Aspergillus flavus GZWMJZ-288, an Endophytic Fungus from Garcinia multiflora” (Molecules, 2023).
Entries after “also recorded” stand apart in the source; their conditions may differ.

target: T1, NPC1L1 (Homo sapiens, UniProt Q9UHC9); assay: Combining ability test with NPC1L1 (SPR, Biacore); assay type: binding; conditions: fixed concentration 10 μM; ezetimibe positive control
T1 sequence (Q9UHC9 22-1359): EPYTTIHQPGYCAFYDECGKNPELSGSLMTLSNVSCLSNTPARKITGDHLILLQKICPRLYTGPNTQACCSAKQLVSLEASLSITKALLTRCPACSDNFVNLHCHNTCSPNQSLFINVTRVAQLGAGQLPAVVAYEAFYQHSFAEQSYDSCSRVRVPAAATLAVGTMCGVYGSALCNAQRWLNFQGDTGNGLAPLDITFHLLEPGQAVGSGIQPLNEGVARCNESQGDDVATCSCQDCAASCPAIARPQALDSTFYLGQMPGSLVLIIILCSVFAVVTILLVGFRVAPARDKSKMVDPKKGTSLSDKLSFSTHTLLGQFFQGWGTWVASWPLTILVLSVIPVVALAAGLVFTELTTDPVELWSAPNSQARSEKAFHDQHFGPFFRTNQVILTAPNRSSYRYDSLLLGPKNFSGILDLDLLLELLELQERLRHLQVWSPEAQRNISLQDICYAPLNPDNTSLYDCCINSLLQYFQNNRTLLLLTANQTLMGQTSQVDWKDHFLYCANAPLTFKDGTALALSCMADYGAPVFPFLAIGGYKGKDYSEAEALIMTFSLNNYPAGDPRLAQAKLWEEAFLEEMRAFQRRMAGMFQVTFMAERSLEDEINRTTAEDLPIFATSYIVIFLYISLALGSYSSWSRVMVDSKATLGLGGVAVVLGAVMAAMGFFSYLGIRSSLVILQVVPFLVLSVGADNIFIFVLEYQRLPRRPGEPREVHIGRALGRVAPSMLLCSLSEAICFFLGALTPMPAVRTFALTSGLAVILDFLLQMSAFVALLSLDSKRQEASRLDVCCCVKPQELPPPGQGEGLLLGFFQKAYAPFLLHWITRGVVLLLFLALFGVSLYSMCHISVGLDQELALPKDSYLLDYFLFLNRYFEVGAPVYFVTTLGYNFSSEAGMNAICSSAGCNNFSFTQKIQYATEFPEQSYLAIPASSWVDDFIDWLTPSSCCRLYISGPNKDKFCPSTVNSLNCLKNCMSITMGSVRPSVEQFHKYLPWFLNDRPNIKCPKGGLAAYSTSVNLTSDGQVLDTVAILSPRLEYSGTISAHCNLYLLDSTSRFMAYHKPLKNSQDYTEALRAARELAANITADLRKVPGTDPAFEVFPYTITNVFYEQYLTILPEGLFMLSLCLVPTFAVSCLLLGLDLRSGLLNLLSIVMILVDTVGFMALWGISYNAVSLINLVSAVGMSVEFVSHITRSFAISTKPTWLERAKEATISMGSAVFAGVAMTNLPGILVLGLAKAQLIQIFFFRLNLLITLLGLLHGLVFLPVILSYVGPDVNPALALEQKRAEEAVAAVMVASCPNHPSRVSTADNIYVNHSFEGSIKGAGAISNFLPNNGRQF
Description: NPC1L1 is currently considered to be the key protein for cholesterol absorption. It is impossible to evaluate the activity of targeting compounds on NPC1L1 through colorimetry assay due to NPC1L1′s lack of catalytic activity. The experiment was carried out under fixed concentration at 10 μM with ezetimibe as a positive control. Excess reactive esters on the sensor chip surface were blocked with 1 M ethanolamine (pH 8.5) for 7 min. The flow cell used for reference was activated and blocked as described above but remained uncoupled. Binding is typically reported in response units (RUs), which is defined as the response obtained from the flow cell containing the immobilized receptor minus the response obtained from the reference flow cell. CM5 series sensor chips and coupling reagents EDC and NHS were purchased from GE. The surface of the flow cell was activated for 7 min using a 1:1 mixture of 100 mM EDC and 100 mM NHS at a flow rate of 10 μL/mi. Subsequently, the corresponding proteins were injected over the surface for 7 min using the time and flow method (final immobilization level: 15,000 RU). Excess reactive esters on the sensor chip surface were blocked with 1 M ethanolamine (pH 8.5) for 7 min. The ability of compounds to combine with NPC1L1 protein was determined by the response value.

Compound | binding ability with NPC1L1 (SPR response)
CC(=O)OCC(C)C1=C(c2c[nH]c3ccccc23)C2C(C)CC(O)C3(C)C(C)CCC(O)C23CC1 (stereo not drawn) [Compound 1, 26-dihydroxyaflavininyl acetate] | could bind well with NPC1L1; also recorded: comparable binding ability with NPC1L1
C=C(C)C1CCC23[C@H](C1c1c[nH]c4ccccc14)[C@H](C)C[C@@H](O)[C@@]2(C)[C@H](C)CC[C@@H]3O (stereo partly drawn) [Compound 4, 14-eoi-14-hydroxy10,23-dihydro-24,25-dehydroaflavinine] | could bind well with NPC1L1; also recorded: comparable binding ability with NPC1L1
CC(C)C1=C(c2c[nH]c3ccccc23)[C@@H]2[C@H](C)CC[C@@]3(C)[C@H](C)CC[C@H](O)C23CC1 (stereo partly drawn) [Compound 6, aflavinine] | could bind well with NPC1L1; also recorded: stronger than that of ezetimibe; also recorded: stronger binding ability with NPC1L1 than ezetimibe
